From ChEMBL document CHEMBL5233248, “Resveratrol - A comprehensive review of recent advances in anticancer drug design and development” (Eur J Med Chem, 2020)
Each block holds one compound with its values, some of them ahead of it.

Columns and labels:
MDA-MB-435 = experiment: Anticancer activity against human MDA-MB-435 cells assessed as cell growth inhibition; format: functional
SF-295 = experiment: Anticancer activity against human SF-295 cells assessed as cell growth inhibition; format: functional
UACC-62 = experiment: Anticancer activity against human UACC-62 cells assessed as cell growth inhibition; format: functional
MV4-11 = experiment: Anticancer activity against human MV4-11 cells assessed as cell growth inhibition; format: functional; details: read-out: LD50 (the source's name)
SK-OV-3 [1] = experiment: Anticancer activity against human SK-OV-3 assessed as cell growth inhibition incubated for 72 hrs by MTT assay; format: functional, cell-based; details: SK-OV-3, 72 h
PC-3 = experiment: Anticancer activity against human PC-3 assessed as cell growth inhibition incubated for 24 hrs by MTT assay; format: functional, cell-based; details: PC-3, 24 h
MCF7 [2] = experiment: Anticancer activity against human MCF7 assessed as cell growth inhibition incubated for 24 hrs by MTT assay; format: functional, cell-based; details: MCF7, 24 h
PANC-1 = experiment: Anticancer activity against human PANC-1 cells assessed as cell growth inhibition incubated for 48 hrs by SRB assay; format: functional
MDA-MB-231 [3] = experiment: Anticancer activity against human MDA-MB-231 cells assessed as cell growth inhibition incubated for 48 hrs by SRB assay; format: functional, cell-based; details: MDA-MB-231, 48 h
[4] = test system: Panel NCI-60 (60 carcinoma cell lines); experiment: Growth inhibition of human Panel NCI-60 (60 carcinoma cell lines); format: functional
A-431 = experiment: Anticancer activity against human A-431 cells assessed as reduction of cell viability incubated for 48 hrs by MTT assay; format: functional, cell-based; details: A-431, 48 h
MCF-12A = experiment: Anticancer activity against human MCF-12A cells assessed as reduction of cell viability incubated for 48 hrs by MTT assay; format: functional, cell-based
HaCaT = experiment: Anticancer activity against human HaCaT cells assessed as reduction of cell viability incubated for 48 hrs by MTT assay; format: functional, cell-based
MCF7 [5] = experiment: Anticancer activity against human MCF7 cells assessed as reduction of cell viability incubated for 48 hrs by MTT assay; format: functional, cell-based; details: MCF7, 48 h
HCT-116 = experiment: Anticancer activity against human HCT-116 cells assessed as cell growth inhibition incubated for 4 days; format: functional, cell-based; details: HCT-116, 96 h
OVCAR-3 [6] = experiment: Anticancer activity against human OVCAR-3 cells assessed as cell growth inhibition incubated for 24 hrs […] by MTT assay; format: functional, cell-based; details: OVCAR-3, 24 h
[7] = Anticancer activity against human Peritoneal mesothelial cells assessed as cell growth inhibition incubated for 24 hrs […] by MTT assay; format: functional, cell-based
A2780 [8] = experiment: Anticancer activity against human A2780 cells assessed as cell growth inhibition by LDH release assay; format: functional, cell-based
[9] = Anticancer activity against human Peritoneal mesothelial cells assessed as cell growth inhibition by LDH release assay; format: functional, cell-based
A2780 [10] = experiment: Anticancer activity against human A2780 cells assessed as cell growth inhibition incubated for 24 hrs […] by MTT assay; format: functional, cell-based; details: A2780, 24 h
OVCAR-3 [11] = experiment: Anticancer activity against human OVCAR-3 cells assessed as cell growth inhibition by LDH release assay; format: functional, cell-based
[12] = Anticancer activity against human HOSE cells assessed as cell growth inhibition incubated for 24 hrs […] by MTT assay; format: functional, cell-based
[13] = Anticancer activity against human HOSE cells assessed as cell growth inhibition by LDH release assay; format: functional, cell-based
SK-OV-3 [14] = experiment: Anticancer activity against human SK-OV-3 cells assessed as cell growth inhibition incubated for 24 hrs […] by MTT assay; format: functional, cell-based; details: SK-OV-3, 24 h
SK-OV-3 [15] = experiment: Anticancer activity against human SK-OV-3 cells assessed as cell growth inhibition by LDH release assay; format: functional, cell-based
HeLa [16] = experiment: Anticancer activity against human HeLa cells assessed as cell growth inhibition; format: functional, cell-based
HeLa [17] = experiment: Anticancer activity against human HeLa cells assessed as cell growth inhibition incubated for 48 hrs by MTT assay; format: functional, cell-based
HL-60 = experiment: Anticancer activity against human HL-60 cells assessed as cell growth inhibition incubated for 48 hrs by MTT assay; format: functional, cell-based; details: HL-60, 48 h
COLO 205 = experiment: Anticancer activity against human COLO 205 cells assessed as cell growth inhibition; format: functional
SF-539 = experiment: Anticancer activity against human SF-539 cells assessed as cell growth inhibition; format: functional
SK-MEL-5 = experiment: Anticancer activity against human SK-MEL-5 cells assessed as cell growth inhibition; format: functional
Aromatase = target: T1, Aromatase (Homo sapiens, UniProt P11511); experiment: Inhibition of human recombinant aromatase using 7-methoxy-4-trifluoromethyl coumarin as substrate preincubated for 10 mins followed by compound addition measured after 30 mins in presence of NADPH by HTS analysis
T1 sequence (P11511 whole entry): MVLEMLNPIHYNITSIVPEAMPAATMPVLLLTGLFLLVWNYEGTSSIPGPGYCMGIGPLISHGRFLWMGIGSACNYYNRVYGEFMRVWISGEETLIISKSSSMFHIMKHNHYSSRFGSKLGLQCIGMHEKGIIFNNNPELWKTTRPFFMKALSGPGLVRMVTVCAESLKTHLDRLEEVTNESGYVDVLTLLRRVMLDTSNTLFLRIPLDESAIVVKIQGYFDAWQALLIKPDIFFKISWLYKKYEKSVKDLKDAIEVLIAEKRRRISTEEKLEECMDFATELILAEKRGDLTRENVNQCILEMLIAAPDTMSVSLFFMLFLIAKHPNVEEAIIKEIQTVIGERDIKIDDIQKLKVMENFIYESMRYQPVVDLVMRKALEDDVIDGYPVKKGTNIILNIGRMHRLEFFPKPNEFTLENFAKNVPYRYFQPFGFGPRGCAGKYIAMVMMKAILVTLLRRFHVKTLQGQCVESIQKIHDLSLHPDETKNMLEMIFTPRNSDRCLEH

MDA-MB-157 = experiment: Anticancer activity against human MDA-MB-157 cells assessed as cell viability at 10 uM measured after 7 days relative to control; format: functional; details: MDA-MB-157, 168 h, time 7 day, read-out: Activity
B16-F10 [18] = experiment: Anti cancer activity against mouse B16-F10 cells assessed as cell growth inhibition incubated for 40 hrs by Almar Blue stained fluorescence-based assay; format: functional; details: B16-F10, 40 h
Caco-2 = experiment: cells; details: Homo sapiens, Caco-2, 48 h
Description: Anti cancer activity against human Caco-2 cell assessed as cell growth inhibition incubated for 48 hrs by Brdu assay

MCF7 [19] = experiment: Anticancer activity against human MCF7 cells assessed as cell viability at 10 uM measured after 7 days relative to control; format: functional; details: MCF7, 168 h, time 7 day, read-out: Activity
B16-F10 [20] = experiment: Anti cancer activity against mouse B16-F10 cells assessed as cell growth inhibition incubated for 40 hrs by Almar Blue stained fluorescence-based assay relative to control; format: functional
BT-549 = experiment: Anticancer activity against human BT-549 cells assessed as cell viability at 10 uM measured after 7 days relative to control; format: functional; details: BT-549, 168 h, time 7 day, read-out: Activity
MDA-MB-231 [21] = experiment: Anticancer activity against human MDA-MB-231 cells assessed as cell viability at 10 uM measured after 7 days relative to control; format: functional; details: MDA-MB-231, 168 h, time 7 day, read-out: Activity
ZR-75-1 = experiment: Anticancer activity against human ZR-75-1 cells assessed as cell viability at 10 uM measured after 7 days relative to control; format: functional; details: ZR-75-1, 168 h, time 7 day, read-out: Activity
HepG2 = experiment: cells; details: Homo sapiens, HepG2, 48 h
Description: Anti cancer activity against human HepG2 cell assessed as cell growth inhibition incubated for 48 hrs by Brdu assay

HT-29 = experiment: cells; details: Homo sapiens, HT-29, 48 h
Description: Anti cancer activity against human HT-29 cell assessed as cell growth inhibition incubated for 48 hrs by Brdu assay

[22] = Anticancer activity against human MuM-2B cells assessed as cell growth inhibition incubated for 72 hrs by CCK-8 assay; format: functional, cell-based
[23] = Cytotoxicity activity against human CCD-1059Sk cells assessed as cell growth inhibition incubated for 48 hrs in presence of resveratrol by MTS assay; format: toxicity, cell-based
MCF7 [24] = experiment: Anticancer activity against human MCF7 cells assessed as cell growth inhibition incubated for 48 hrs by MTS assay; format: functional, cell-based; details: MCF7, 48 h
in vitro [25] = details: human, CCD-1059Sk cells and MCF7 cells
Description: Selectivity index, ratio of IC50 for cytotoxicity against CCD-1059Sk cells to IC50 for antiproliferative activity against MCF7 cells

in vitro [26] = details: human, CCD-1059Sk cells and MCF7 cells; remark: listed apart in the source
Description: Selectivity index, ratio of IC50 for cytotoxicity against CCD-1059Sk cells to IC50 for antiproliferative activity against MCF7 cells in presence of resveratrol

[27] = Cytotoxicity activity against human CCD-1059Sk cells assessed as cell growth inhibition incubated for 48 hrs by MTS assay; format: toxicity, cell-based
MCF7 [28] = experiment: Anticancer activity against human MCF7 cells assessed as cell growth inhibition incubated for 48 hrs in presence of resveratrol by MTS assay; format: functional, cell-based; details: MCF7, 48 h

Compound: COc1ccc(/C(C#N)=C/c2ccc3ccccc3c2)cc1OC
- GI50 (MDA-MB-435): 0.025 µM
- GI50 (SF-295): 0.025 µM
- GI50 (UACC-62): 0.025 µM
- CC50 (MV4-11): 0.45 µM

- IC50 (SK-OV-3 [1]): 18.2 µM
Compound: COc1cc(OC)cc(-n2cnc(-c3ccc(O)cc3)c2)c1

- IC50 (PC-3): 12.4 µM
- IC50 (MCF7 [2]): 14.5 µM
Compound: Oc1ccc(/C=C/c2cccc(Br)n2)cc1O

- GI50 (PANC-1; 48 h): 0.094 µM
- GI50 (PANC-1; Homo sapiens, PANC-1, 48 h): 0.064 µM
- IC50 (MDA-MB-231 [3]): 0.072 µM
Compound: COc1cc(/C=C/c2ccc(OC(=O)CSc3nnc(-c4cccc(C(F)(F)F)c4)o3)cc2)cc(OC)c1

Compound: COc1ccc(/C=C(\C#N)c2cc(OC)c(OC)c(OC)c2)cc1O
- GI50 [4]: < 0.01 µM

- IC50 (A-431): 19.3 µM
- IC50 (MCF7 [5]): 2.1 µM
Compound: COc1cc(/C=C/c2ccc(SC)cc2)cc(OC)c1OC
- IC50 (MCF-12A): 25.7 µM
- IC50 (HaCaT): 10 µM

- IC50 (HCT-116): 9.52 µM
Compound: CC1c2cc(O)c(O)cc2Oc2cc(/C=C/c3ccc(O)cc3)cc(O)c21 (stereo not drawn)

- IC50 (OVCAR-3 [6]): 50 µM
- IC50 (A2780 [8]): 6 µM
- IC50 (A2780 [10]): 4 µM
- IC50 (OVCAR-3 [11]): 85 µM
- IC50 (SK-OV-3 [14]): 8 µM
- IC50 (SK-OV-3 [15]): 10 µM
Compound: Oc1ccc(/C=C/c2ccc(O)c(O)c2)cc1O
- IC50 [7]: 496 µM
- IC50 [9]: 498 µM
- IC50 [12]: 502 µM
- IC50 [13]: 532 µM

- IC50 (HeLa [16]): 10.2 µM
Compound: CC(=O)Oc1ccc(/C=C/c2ncc3cccc(OC(C)=O)c3n2)cc1OC(C)=O

- IC50 (HeLa [17]): 38.9 µM
- IC50 (HL-60): 47.7 µM
Compound: COc1ccc(NC(=O)c2cc(OC)cc(OC)c2)cc1

Compound: COc1cc(/C(C#N)=C/c2ccc3ccccc3c2)cc(OC)c1OC
- GI50 (MDA-MB-435): ≤ 0.025 µM
- GI50 (COLO 205): ≤ 0.025 µM
- GI50 (SF-539): ≤ 0.025 µM
- GI50 (SK-MEL-5): ≤ 0.025 µM
- CC50 (MV4-11): 0.2 µM

- IC50 (Aromatase): 85 µM
Compound: COc1ccccc1/C=C/c1ccc(OC)c(OC)c1

Compound: COc1ccc(/C=C\c2cc(OC)cc(OC)c2)cc1 [8Z-3,4',5-TRIMETHOXYSTILBENE]
- viability at 10 µM (MDA-MB-157): 25%
- IC50 (B16-F10 [18]): 1 µM
- IC50 (Caco-2): 0.145 µM
- viability at 10 µM (MCF7 [19]): 50%
- inhibition (INH) (B16-F10 [20]): 75%
- viability at 10 µM (BT-549): 70%
- viability at 10 µM (MDA-MB-231 [21]): 10%
- viability at 10 µM (ZR-75-1): < 50%
- IC50 (HepG2): 0.473 µM
- IC50 (HT-29): 0.115 µM

Compound: COc1cc(/C=C/c2ccc(OCC(=O)O[C@H]3c4cc5c(cc4[C@@H](c4cc(OC)c(OC)c(OC)c4)[C@H]4C(=O)OC[C@@H]43)OCO5)cc2)cc(OC)c1
- IC50 [22]: 0.081 µM

- IC50 (MCF7 [24]): 68.2 µM
- IC50 (MCF7 [28]): 61.7 µM
Compound: COc1cc(/C=C/C(=O)CC(=O)/C=C/c2ccc(O)c(OC)c2)ccc1O [CURCUMIN]
- IC50 at 48 h [23]: 83.1 µM
- selectivity ratio (in vitro [25]): 1.93
- selectivity ratio (in vitro [26]): 1.35
- IC50 at 48 h [27]: 133 µM

Compound: COc1ccc(/C=C\c2cc(OC)c(OC)c(OC)c2)cc1O [COMBRETASTATIN A4]
- GI50 [4]: < 0.01 µM
